Values quoted from earlier work as cited in patent US20070059740A1, “METHOD OF TARGETING A2B ADENOSINE RECEPTOR ANTAGONIST THERAPY” (priority 2005, published 2007).

Test system: Zucker rats
Conditions: A2B adenosine receptor antagonist, reported by LaNoue et al., U.S. Pat. No. 6,060,481

CCCn1c(=O)c2[nH]c(-c3ccc(C=CC(=O)O)cc3)nc2n(CCC)c1=O [1,3-dipropyl-8-(p-acrylic)-phenylxanthine]
glucose tolerance: improves glucose tolerance
